Data on 18 molecules can be found in ChEMBL document CHEMBL4411276, “Chemistry-oriented synthesis (ChOS) and target deconvolution on neuroprotective effect of a novel scaffold, oxaza spiroquinone” (Eur J Med Chem, 2019).

One series concerns BV-2. Kind of series: Anti-inflammatory activity in mouse BV2 cells assessed as reduction in LPS-induced NO production pre-treated before LPS stimulation for 24 hrs by Griess reagent-based assay. Type of series: functional, cell-based.
Series [1] can be described thus: Cytotoxicity against LPS-stimulated mouse BV2 cells assessed as cell survival after 24 hrs by MTT assay relative to control. Particulars: read-out: Survival. Type of series: cell-based, BV-2. On the set-up: concentration or dose not given beside the values. On the technique in general: Tetrazolium dyes change colour on reduction, which living cells bring about.
Series [2] is described as follows: Cytotoxicity against mouse BV2 cells assessed as cell survival after 24 hrs by MTT assay relative to control. Type of series: cell-based, BV-2. Further details: concentration or dose not given beside the values. Conditions: read-out: Survival.

What is called IC50 is the concentration that inhibits the measured activity by half.

For `O=C1C=CC2(C=C1)OCCC(=O)N2c1ccccc1`, in the series with BV-2, the IC50 came out at 1300 nM. The viability at 24 h was determined as 79.8% in series [1] and 102% in series [2].

As for `C=CCCC1COC2(C=CC(=O)C=C2)N(c2ccccc2)C1=O` (stereo unspecified), in the series on BV-2, the IC50 turned out to be 730 nM. Moreover, the viability at 24 h stood at 80.4% in series [1] and 89% in series [2].

On to `Cc1cc(C)cc(CC2COC3(C=CC(=O)C=C3)N(c3ccccc3)C2=O)c1` (stereo unspecified), for which, in the series on BV-2, the IC50 was 1820 nM. The viability at 24 h in series [1] was found to be 78%; in series [2], 94.2%.

Take `O=C1C=CC2(C=C1)OCC(Cc1ccc(C(F)(F)F)cc1[N+](=O)[O-])C(=O)N2c1ccccc1` (stereo unspecified): the concentration for half-maximal inhibition (IC50) in the series on BV-2 stood at 970 nM.

As to `CC1COC2(C=CC(=O)C=C2)N(c2ccccc2)C1=O` (stereo unspecified), the IC50 with BV-2 stood at 1220 nM. Moreover, the figures for the viability at 24 h in series [1] and in series [2] were 72.8% and 86.1%, respectively.

Consider `O=C1C=CC2(C=C1)OCC(Cc1c(F)cccc1C(F)(F)F)C(=O)N2c1ccccc1` (stereo unspecified), for which the IC50 with BV-2 was determined as 600 nM. Further, the figures for the viability at 24 h in series [1] and in series [2] were 71.1% and 84.4%, respectively.

In the case of `O=C1C=CC2(C=C1)OCC(Cc1ccc(Cl)cc1)C(=O)N2c1ccccc1` (stereo unspecified), the IC50 in the series with BV-2 came out at 540 nM. Moreover, the viability at 24 h was found to be 79% in series [1] and 91% in series [2].

On to `O=C1C=CC2(C=C1)OCC(Cc1ccc([N+](=O)[O-])cc1)C(=O)N2c1ccccc1` (stereo unspecified), for which the IC50 in the series with BV-2 was 430 nM. For the same molecule, the results for the viability at 24 h in series [1] and in series [2] were 82.7% and 95.5%, respectively.

Turning to `C=CCC1COC2(C=CC(=O)C=C2)N(c2ccccc2)C1=O` (stereo unspecified), the IC50 with BV-2 was 1030 nM. Further, the viability at 24 h in series [1] worked out at 84.6%; in series [2], 89.7%.

Take `O=C1C=CC2(C=C1)OCC(Cc1cc(C(F)(F)F)ccc1Cl)C(=O)N2c1ccccc1` (stereo unspecified): in the series on BV-2, the IC50 is 770 nM. The values for the viability at 24 h in series [1] and in series [2] were 64.4% and 70.5%, respectively.

As to `O=C1C=CC2(C=C1)OCC(Cc1ccc(Br)cc1)C(=O)N2c1ccccc1` (stereo unspecified), in the series on BV-2, the IC50 worked out at 1380 nM. The viability at 24 h in series [1] was 72%; in series [2] it was 82.7%.

With `O=C1C=CC2(C=C1)OCC(Cc1ccccc1)C(=O)N2c1ccccc1` (stereo unspecified), the IC50 in the series with BV-2 is 570 nM. Besides, the viability at 24 h in series [1] is 76.1%; in series [2], 82.1%.

Turning to `O=C1C=CC2(C=C1)OCC(Cc1cccc(Br)c1)C(=O)N2c1ccccc1` (stereo unspecified), the IC50 in the series on BV-2 came out at 540 nM. Moreover, the viability at 24 h came out at 74% in series [1] and 96% in series [2].

On to `O=C1C=CC2(C=C1)OCC(Cc1ccc(F)cc1)C(=O)N2c1ccccc1` (stereo unspecified), for which the IC50 in the series on BV-2 turned out to be 400 nM. Also, the figures for the viability at 24 h in series [1] and in series [2] were 85.2% and 82.9%, respectively.

For `CNC(=N)NCCC[C@H](N)C(=O)O` [TILARGININE], the IC50 with BV-2 was 16000 nM. Besides, the viability at 24 h in series [1] is 60.5%.

For the molecule `O=C1C=CC2(C=C1)OCC(Cc1ccccc1CS(=O)(=O)c1ccccc1)C(=O)N2c1ccccc1` (stereo unspecified), the IC50 in the series on BV-2 came out at 980 nM. The results for the viability at 24 h in series [1] and in series [2] were 84.3% and 97.5%, respectively.

For the molecule `C=C(C)CC1COC2(C=CC(=O)C=C2)N(c2ccccc2)C1=O` (stereo unspecified), the IC50 in the series on BV-2 worked out at 450 nM. In addition, the viability at 24 h in series [1] was found to be 80.1%; in series [2] it was 91.4%.

Regarding `O=C1C=CC2(C=C1)OCC(Cc1ccc(C(F)(F)F)cc1)C(=O)N2c1ccccc1` (stereo unspecified), the IC50 in the series with BV-2 was 1650 nM. In addition, the viability at 24 h in series [1] is 84.1%; in series [2] it was 87.1%.
